Measurements from patent US20230398130A1, “METHODS AND COMPOSITIONS FOR DIFFERENTIATING STEM CELLS” (Massachusetts Institute of Technology, priority 2020, published 2023).
“Also recorded” adds a separate entry of the source.

Assays:
Paneth cells = test: In vivo oral gavage of KPT-330 every other day for two weeks: histological counting of Paneth, Olfm4+ stem and PAS+ goblet cells in small intestine; design: species or system C57BL/6 wild-type mice
Method: Applicants tracked animal weight every other day, and at day 14 collected the proximal and distal thirds of the small intestine for histological quantification of Paneth, stem, and goblet populations (FIG. 26A). […] Samples were prepared for histology by the 'swiss-roll' technique, and following staining, were blinded and randomized before manual counting of well-preserved features. […] Animal study. 8-10 weeks old wild type C57BL/6NCrl male mice (#027) were purchased from Charles River. […] All animal studies are approved by the Committee on Animal Care (CAC) at Massachusetts Institute of Technology. Histology. The small intestine (SI) was collected from mice and divided into three parts. Only proximal and distal SI were kept in PBS, and medial SI was discarded. Each SI was opened longitudinally and washed in PBS. […] Fixed tissues were embedded in paraffin, and […] sections were mounted on slides. […] For McManus Periodic Acid Schiff (PAS) reaction, slides were deparaffinized, oxidized in periodic acid, and stained with Schiff reagent (Poly Scientific, s272) followed by counterstaining with Harris Hematoxylin. Slides were scanned by Aperio Slide Scanner (Leica) and cells were counted on Aperio eSlide Manager. Slides were randomized before counting, and all cell types were counted in all well-preserved crypts along the longitudinal crypt-villus axis. […] Because Paneth cell number and quality is known to physiologically change along the length of the small intestine, and diseases associated with Paneth cells most frequently present distally^56, Applicants sought to profile how XPO1 inhibition may differentially affect proximal and distal small intestine. Applicants tracked animal weight every other day and collected the proximal and distal thirds of the small intestine at day 14 for histological quantification of Paneth, stem, and goblet populations (FIG. 61A). […] Paneth cells were counted within well-preserved crypts-with at least 30 crypts quantified per animal (representative images FIG. 62C) and the counts were averaged. […] Animal study. 8-10 weeks old wild type C57BL/6NCrl male mice (#027) were purchased from Charles River. […] All animal studies are approved by the Committee on Animal Care (CAC) at Massachusetts Institute of Technology. Histology. The small intestine (SI) was collected from mice and divided into three parts. Only proximal and distal SI were kept in PBS, and medial SI was discarded. Each SI was opened longitudinally and washed in PBS. […] Fixed tissues were embedded in paraffin, and […] sections were mounted on slides. […] For McManus Periodic Acid Schiff (PAS) reaction, slides were deparaffinized, oxidized in periodic acid, and stained with Schiff reagent (Poly Scientific, s272) followed by counterstaining with Harris Hematoxylin. Slides were scanned by Aperio Slide Scanner (Leica) and cells were counted on Aperio eSlide Manager. Slides were blinded and randomized before counting, and all cell types were counted in all well-preserved crypts along the longitudinal crypt-villus axis (Paneth cell: >30 crypts, Olfm4+ cell: ≥17 crypts, Goblet cell: >15 villi, per sample). For the Goblet cell images, the samples that include less than 15 well-preserved crypt-villus axes were excluded, which was predetermined.

intestinal organoids = test: Population RNA-sequencing of organoids; assay type: cell-based, murine
Method: Population RNA-sequencing. Population RNA-seq was performed using a derivative of the Smart-Seq2 protocol for single cells. In brief, organoid media was aspirated and RLT+BME (Qiagen) was added to each well, and plate shaken for 30 minutes to fully lyse. Lysate was aliquoted into 4 identical fractions and stored at −80° C. until reverse transcription. RNA lysate was thawed and cleaned with a 2.2×SPRI ratio using Agencourt RNAClean XP beads (Beckman Coulter, A63987). RNA-seq was performed on a bulk population of […] using Smart-Seq2 chemistry, starting with a 2.2×SPRI ratio cleanup. After oligo-dT priming, Maxima H Minus Reverse Transcriptase (ThermoFisher EP0753) was used to synthesize cDNA with an elongation step at 52° C. before PCR amplification (15 cycles for tissue, 18 cycles for sorted basal cells) using KAPA HiFi PCR Mastermix (Kapa Biosystems KK2602). Sequencing libraries were prepared using the Nextera XT DNA tagmentation kit (Illumina FC-131-1096) with 250 pg input for each sample. Libraries were pooled post-Nextera and cleaned using Agencourt AMPure SPRI beads with successive 0.7× and 0.8× ratio SPRIs and sequenced with an Illumina 75 Cycle NextSeq500/550v2 kit (Illumina FC-404-2005) with loading density at 2.2 pM, with paired end 35 cycle read structure. Samples were sequenced at an average read depth of 8.44 million reads per sample and a total of 96 samples.
Organoid samples were aligned to the Mm10 genome and transcriptome using STAR and RSEM. […] For module scoring with the in vivo Paneth and enteroendocrine cell-defining genes, Applicants used previously published gene sets and computed persample module scores through the Seurat package.

## O=C(/C=C\n1cnc(-c2cc(C(F)(F)F)cc(C(F)(F)F)c2)n1)NNc1cnccn1 [KPT-330]
Paneth cells; 0.01 mg/kg, distal SI, day 14
  Olfm4+ stem cells per crypt: significant increase in Olfm4+ stem cells
Paneth cells; 0.01 mg/kg, distal small intestine
  fraction of crypts with more Paneth cells than the vehicle 90th percentile cutoff (5 per crypt): 27.9%
Paneth cells; 0.01 mg/kg, distal small intestine, day 14
  Paneth cell abundance per crypt: significant increases in Paneth cell abundance
Paneth cells; 0.01 mg/kg, proximal small intestine, day 14
  Paneth cell abundance per crypt: significant increases in Paneth cell abundance
Paneth cells; 0.2 mg/kg, proximal small intestine
  fraction of crypts with more Paneth cells than the vehicle 90th percentile cutoff (4 per crypt): 15.5%
Paneth cells; 0.2 mg/kg, proximal small intestine, day 14
  Paneth cell abundance per crypt: significant increases in Paneth cell abundance
Paneth cells; 0.01-0.2 mg/kg, proximal and distal SI, day 14
  PAS+ goblet cell population: did not overserve any significant changes; also recorded: did not identify any significant changes
Paneth cells; low dose KPT-330
  additional Paneth cells per crypt in vivo: 0.5-1 Paneth cells per crypt
Intestinal organoids; ENR+CV, ENR+CD or ENR organoids
  secretory cell identity (Paneth, goblet, EEC) from bulk transcripts: increase secretory cells (Paneth, goblet, and EEC)
Intestinal organoids; hits compared, ENR and ENR+CD
  number of differentially expressed genes: the most differentially expressed genes
